Measurements published in ChEMBL document CHEMBL1201862, “PubChem BioAssay data set” (2004).
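Five concentrations, 48 hours, 96-well plates. Abbreviation: GI50, concentration required for 50% inhibition of growth.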 The source made the active and inactive calls. Rule as the data show it: active = GI50 up to about 1.1 µM and inactive = higher.

Legend:
Assay in all cases: NCI anticancer screen, dose series, 48 h
ACHN = system: ACHN
BT-549 = system: BT-549
COLO 205 = system: COLO 205
HOP-62 = system: HOP-62
MCF7 = system: MCF7
MDA-N = system: MDA-N
Malme-3M = system: Malme-3M
OVCAR-3 = system: OVCAR-3
OVCAR-8 = system: OVCAR-8
SF-295 = system: SF-295
SF-539 = system: SF-539
SK-MEL-28 = system: SK-MEL-28
SK-MEL-5 = system: SK-MEL-5
T47D = system: T47D
HOP-92 = system: HOP-92
NCI-H226 = system: NCI-H226
NCI-H522 = system: NCI-H522

Measured: GI50

Cc1ccnn1CCc1ccc(Cl)cc1Cl
inactive: ACHN 27.9 µM | BT-549 13.6 µM | COLO 205 35 µM | HOP-62 15 µM | MCF7 31.9 µM | MDA-N 44.3 µM | Malme-3M 30.1 µM | OVCAR-3 20.5 µM | OVCAR-8 27.9 µM | SF-295 18 µM | SF-539 18.2 µM | SK-MEL-28 35.4 µM | SK-MEL-5 19 µM | T47D 8.97 µM

CN(C)N1C(=O)S/C(=C\c2ccc([N+](=O)[O-])cc2)C1=O
inactive: ACHN > 100 µM | COLO 205 > 100 µM | HOP-62 > 100 µM | HOP-92 > 100 µM | MCF7 > 100 µM | MDA-N > 100 µM | Malme-3M > 100 µM | NCI-H226 > 100 µM | NCI-H522 > 100 µM | OVCAR-3 > 100 µM | OVCAR-8 99.3 µM | SF-295 > 100 µM | SF-539 > 100 µM | SK-MEL-28 > 100 µM | SK-MEL-5 > 100 µM | T47D 65.5 µM

CCOP(=O)(OCC)C(Nc1ccc(C(=O)O)cc1)c1ccc(C(Nc2ccc(C(=O)O)cc2)P(=O)(OCC)OCC)cc1 (stereo not drawn)
inactive: ACHN > 100 µM | BT-549 > 100 µM | COLO 205 > 100 µM | HOP-62 > 100 µM | HOP-92 > 100 µM | Malme-3M > 100 µM | NCI-H226 > 100 µM | NCI-H522 > 100 µM | OVCAR-3 > 100 µM | OVCAR-8 > 100 µM | SF-295 > 100 µM | SK-MEL-28 > 100 µM | SK-MEL-5 > 100 µM | T47D > 100 µM

CC1(C)C=CC(=O)C(O)C(C)(C)C1=O (stereo not drawn)
inactive: ACHN 98.4 µM | BT-549 68.1 µM | COLO 205 > 100 µM | HOP-62 53.6 µM | HOP-92 92.7 µM | MDA-N 52.8 µM | Malme-3M 17.5 µM | NCI-H226 > 100 µM | NCI-H522 19.9 µM | OVCAR-3 29.1 µM | OVCAR-8 59 µM | SF-295 75.3 µM | SF-539 73.6 µM | SK-MEL-28 > 100 µM | SK-MEL-5 > 100 µM | T47D > 100 µM

N#Cc1c(-c2ccc([N+](=O)[O-])cc2)c(C#N)c(=O)n(NS(=O)(=O)c2ccccc2)c1O
inactive: ACHN > 100 µM | BT-549 > 100 µM | COLO 205 > 100 µM | HOP-62 > 100 µM | HOP-92 > 100 µM | MCF7 > 100 µM | MDA-N > 100 µM | Malme-3M > 100 µM | NCI-H226 > 100 µM | NCI-H522 > 100 µM | OVCAR-3 > 100 µM | OVCAR-8 > 100 µM | SF-295 > 100 µM | SF-539 > 100 µM | SK-MEL-28 > 100 µM | SK-MEL-5 > 100 µM

CCOC(=O)CNC(=O)C(CSCc1ccc(Br)cc1)NC(=O)CCC(N)C(=O)OCC (stereo not drawn)
inactive: ACHN > 50 µM | BT-549 > 50 µM | COLO 205 > 50 µM | HOP-62 > 50 µM | HOP-92 > 50 µM | MCF7 > 50 µM | MDA-N > 50 µM | NCI-H522 > 50 µM | OVCAR-3 > 50 µM | OVCAR-8 > 50 µM | SF-295 > 50 µM | SF-539 > 50 µM | SK-MEL-28 > 50 µM | SK-MEL-5 > 50 µM

O=c1cc(N2CCCC2)[nH]c(=O)n1-c1ccccc1
inactive: ACHN > 100 µM | BT-549 > 100 µM | COLO 205 > 100 µM | HOP-62 > 100 µM | HOP-92 > 100 µM | MCF7 > 100 µM | Malme-3M > 100 µM | NCI-H226 > 100 µM | NCI-H522 > 100 µM | OVCAR-8 > 100 µM | SF-295 > 100 µM | SF-539 > 100 µM | SK-MEL-28 > 100 µM | SK-MEL-5 > 100 µM

CCc1ccc(COC(=O)C2=C(C)NC(C)=C(C(=O)OCc3ccc(CC)cn3)C2C2=COCCO2)nc1
inactive: ACHN 25.2 µM | BT-549 14.4 µM | COLO 205 12.5 µM | HOP-62 17.5 µM | HOP-92 20.7 µM | MCF7 19.5 µM | NCI-H226 16.2 µM | NCI-H522 19.5 µM | OVCAR-3 19.7 µM | OVCAR-8 32.9 µM | SF-295 24.9 µM | SF-539 14.4 µM | SK-MEL-28 18.5 µM | SK-MEL-5 13.3 µM | T47D 11.3 µM

CN1C(=O)[C@@H]2[C@@H]3c4ccccc4N(S(=O)(=O)C(F)(F)F)[C@@H]3c3[nH]c4ccccc4c3[C@@H]2C1=O
inactive: ACHN 25.1 µM | BT-549 > 100 µM | COLO 205 7.91 µM | HOP-62 > 100 µM | HOP-92 1.63 µM | MCF7 11.6 µM | MDA-N > 100 µM | NCI-H226 5.52 µM | OVCAR-3 22.6 µM | OVCAR-8 83 µM | SF-295 50.7 µM | SF-539 > 100 µM | SK-MEL-28 > 100 µM | SK-MEL-5 36.4 µM
